The values that follow come from ChEMBL document CHEMBL3596124, “New anti-trypanosomal active tetracyclic iridoid isolated from Morinda lucida Benth” (Bioorg Med Chem Lett, 2015).

Data set [1] relates to Trypanosoma brucei brucei. The data set is described as follows: Anti-trypanosomal activity against Trypanosoma brucei brucei GUTat 3.1 bloodstream forms assessed as reduction in parasitemia incubated for 48 hrs by alamar blue assay. The settings on record: GUTat 3.1, 48 h. The format is functional, organism-based.
The nature of data set [2]: Cytotoxicity against human NB1RGB cells assessed as reduction in cell viability incubated for 48 hrs by MTT assay. In kind it is cell-based.
The nature of data set [3]: Cytotoxicity against human HF19 cells assessed as reduction in cell viability incubated for 48 hrs by MTT assay. The format is cell-based. The settings on record: HF19, 48 h. For orientation: Tetrazolium dyes change colour on reduction, which living cells bring about.
A further data set concerns Caco-2. The data set is described as follows: Cytotoxicity against human Caco2 cells assessed as reduction in cell viability incubated for 48 hrs by MTT assay. In kind it is functional, cell-based. The settings on record: Caco-2, 48 h.
For another data set, the system named is LoVo. Nature of the data set: Cytotoxicity against human LoVo cells assessed as reduction in cell viability incubated for 48 hrs by MTT assay. The format is functional, cell-based.
The next data set has as its system HCT-15. The data set is described as follows: Cytotoxicity against human HCT15 cells assessed as reduction in cell viability incubated for 48 hrs by MTT assay. The format is functional, cell-based. The settings on record: HCT-15, 48 h.
Data set [4] is described as follows: Cytotoxicity against human KATO III cells assessed as reduction in cell viability incubated for 48 hrs by MTT assay. In kind it is functional, cell-based.
For another data set, the system named is Jurkat. Nature of the data set: Cytotoxicity against human Jurkat cells assessed as reduction in cell viability incubated for 48 hrs by MTT assay. In kind it is functional, cell-based.
For another data set, the system named is U-937. The data set is described as follows: Cytotoxicity against human U937 cells assessed as reduction in cell viability incubated for 48 hrs by MTT assay. In kind it is functional, cell-based. The settings on record: U-937, 48 h.
For the next data set, the system named is HL-60. The data set is described as follows: Cytotoxicity against human HL60 cells assessed as reduction in cell viability incubated for 48 hrs by MTT assay. In kind it is functional, cell-based. The settings on record: HL-60, 48 h.
The next data set concerns THP-1. Nature of the data set: Cytotoxicity against human THP1 cells assessed as reduction in cell viability incubated for 48 hrs by MTT assay. In kind it is functional, cell-based. The settings on record: THP-1, 48 h.
Data set [5] in a line: Selectivity index, ratio of IC50 for human NB1RGB cells to IC50 for Trypanosoma brucei brucei GUTat 3.1 bloodstream forms. The format is toxicity, cell-based. The settings on record: read-out: Ratio IC50.
Data set [6] can be described thus: Selectivity index, ratio of IC50 for human HF19 cells to IC50 for Trypanosoma brucei brucei GUTat 3.1 bloodstream forms. The format is toxicity, cell-based. The settings on record: read-out: Ratio IC50.
Data set [7] in a line: Selectivity index, ratio of IC50 for human Caco2 cells to IC50 for Trypanosoma brucei brucei GUTat 3.1 bloodstream forms. In kind it is functional, Caco-2.
The nature of data set [8]: Selectivity index, ratio of IC50 for human LoVo cells to IC50 for Trypanosoma brucei brucei GUTat 3.1 bloodstream forms. In kind it is functional.
The nature of data set [9]: Selectivity index, ratio of IC50 for human HCT15 cells to IC50 for Trypanosoma brucei brucei GUTat 3.1 bloodstream forms. In kind it is functional, HCT-15.
Data set [10] can be described thus: Selectivity index, ratio of IC50 for human KATO III cells to IC50 for Trypanosoma brucei brucei GUTat 3.1 bloodstream forms. In kind it is functional, KATO III cell.
Data set [11] can be described thus: Selectivity index, ratio of IC50 for human Jurkat cells to IC50 for Trypanosoma brucei brucei GUTat 3.1 bloodstream forms. The format is functional.
Data set [12] is described as follows: Selectivity index, ratio of IC50 for human U937 cells to IC50 for Trypanosoma brucei brucei GUTat 3.1 bloodstream forms. In kind it is functional, U-937.
Data set [13] is described as follows: Selectivity index, ratio of IC50 for human HL60 cells to IC50 for Trypanosoma brucei brucei GUTat 3.1 bloodstream forms. In kind it is functional, HL-60.
Data set [14] can be described thus: Selectivity index, ratio of IC50 for human THP1 cells to IC50 for Trypanosoma brucei brucei GUTat 3.1 bloodstream forms. The format is functional, THP-1.

What is called IC50 is the concentration at which inhibition is half-maximal. As for `COC(=O)C1=CO[C@@H]2O[C@H]3/C(=C\c4ccc(O)c(OC)c4)C(=O)O[C@]34C=C[C@H]1[C@H]24`, the IC50 in data set [1] came to 1.27 µM; in data set [2] it was 6.01 µM; in data set [3], 12.1 µM; in the data set on Caco-2, 1.35 µM; in the data set with LoVo it was 0.11 µM; in the data set on HCT-15 it was 16 µM. Also, the IC50 turned out to be 0.21 µM in data set [4]; 2.45 µM in the data set with Jurkat; 4.08 µM in the data set with U-937; 3.87 µM in the data set with HL-60; 6.98 µM with THP-1. Also, the selectivity ratio in data set [5] was 4.73; in data set [6] it was 9.54. For the same compound, the “Ratio IC50” value turned out to be 1.06 in data set [7]; 0.09 in [8]; 12.63 in data set [9]; 0.17 in [10]; 1.93 in data set [11]; 3.21 in data set [12]. Further, the “Ratio IC50” value in [13] was 3.05; in data set [14] it was 5.5.
